Data published in patent US12421254B2, “KRAS modulators and uses thereof” (Quanta Therapeutics, Inc., priority 2023, dated 2025).

How the values were obtained:
[1] = target: GST-tagged KRAS-G12D (2-169) (Homo sapiens, UniProt P01116, G12D); experiment: Nucleotide exchange assay (NEA), SOS-mediated, HTRF, KRAS G12D; type: biochemical; conditions: Table 4; IC50 extracted at 30 min; 20 nM SOScat; read-out: NEA G12D IC50
Method in brief: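 SOS1cat-driven loading of fluorescent GTP-DY-647P1 (150 nM) onto GST-KRAS-G12D (2-169, 0.25 nM) read by time-resolved FRET; SOScat 20 nM, compound preincubated with KRAS 1 h at RT. Signal blanked to no-SOS reactions, normalized to DMSO; IC50 fitted from the 30-min read.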

[2] = test system: phospho-ERK in SW620 (KRAS-G12V) cells; experiment: pERK In Cell Western (ICW) assay (Method B), SW620; type: cell-based
Method in brief: (§1)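 Per well, infrared pERK immunofluorescence was divided by DRAQ5 nuclear signal following 3 h treatment with a 9-point, ½-log compound series; seeding was 5,000 (AGS) or 10,000 (GP2D, SW620) cells per well. Percent-of-blank data were fitted to a four-parameter model for IC50.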

[3] = test system: phospho-ERK in GP2D (KRAS-G12D) cells; experiment: pERK In Cell Western (ICW) assay (Method B), GP2D; type: cell-based
Method in brief: as §1

[4] = target: GST-tagged KRAS-G12V (2-169) (Homo sapiens, UniProt P01116, G12V); experiment: Nucleotide exchange assay (NEA), SOS-mediated, HTRF, KRAS G12V; type: biochemical; conditions: Table 4; IC50 extracted at 90 min; 80 nM SOS
Method in brief: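 Exchange onto fluorescent GTP-DY-647P1 (150 nM final) catalysed by 80 nM SOS1cat was followed by Tb-anti-GST HTRF at RT for up to 90 min, after 1 h compound pre-incubation with 0.25 nM GST-tagged KRAS-G12V (2-169), pH 7.3. DMSO = 0%, no-SOS blank = 100%; 4-parameter IC50 taken at 90 min.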

[5] = Homo sapiens, SW-620, 3 h, Table 4

GST-tagged KRAS-G12V (2-169), sequence (P01116 2-169 isoform P01116-2 G12V): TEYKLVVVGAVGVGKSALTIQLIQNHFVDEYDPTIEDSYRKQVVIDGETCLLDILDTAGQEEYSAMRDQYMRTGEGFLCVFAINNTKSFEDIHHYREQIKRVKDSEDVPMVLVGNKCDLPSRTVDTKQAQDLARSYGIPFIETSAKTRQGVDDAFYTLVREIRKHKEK
GST-tagged KRAS-G12D (2-169), sequence (P01116 2-169 isoform P01116-2 G12D): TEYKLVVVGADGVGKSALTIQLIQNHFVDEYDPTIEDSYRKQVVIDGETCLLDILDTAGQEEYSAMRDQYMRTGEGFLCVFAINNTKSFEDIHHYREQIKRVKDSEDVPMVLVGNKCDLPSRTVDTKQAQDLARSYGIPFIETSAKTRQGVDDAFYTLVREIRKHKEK

| Compound | IC50 [1] [nM] | IC50 [2, 5] [nM] | IC50 ([3]; GP2d, 3 h, Table 4) [nM] | IC50 [4] [nM] | IC50 ([2]; Table 4, 3 hours) [nM] | IC50 ([3]; Table 4, 3 hours) [nM] |
| --- | --- | --- | --- | --- | --- | --- |
| C[C@@]1(O)CCCN(c2nc(OCC3(CN4CCOCC4)CC3)nc(N3CC4(C3)SCc3sc(N)c(C#N)c34)n2)C1 [Compound 73, 2-amino-1′-[4-[(3R)-3-hydroxy-3-methyl-1-piperidyl]-6-[[1-(morpholinomethyl)cyclopropyl]methoxy]-1,3,5-triazin-2-yl]spiro[6H-thieno[2,3-c]thiophene-4,3′-azetidine]-3-carbonitrile] | < 10 | 10 to 100 | 10 to 100 | < 10 | – | – |
| N#Cc1c(N)sc2c1C1(CN(c3nc(OC[C@@]45CCCN4C[C@H](F)C5)nc(Oc4ccnnc4)n3)C1)SC2 [Compound 169, 2-amino-1′-[4-[[(2R,8S)-2-fluoro-1,2,3,5,6,7-hexahydropyrrolizin-8-yl]methoxy]-6-pyridazin-4-yloxy-1,3,5-triazin-2-yl]spiro[6H-thieno[2,3-c]thiophene-4,3′-azetidine]-3-carbonitrile] | 1000 to 20000 | 1000 to 20000 | 1000 to 20000 | 100 to 1000 | – | – |
| CN(Cc1c(F)ccnc1N)c1nc(OC[C@@]23CCCN2C[C@H](F)C3)nc(N2CC3(C2)SCc2sc(N)c(C#N)c23)n1 [Compound 179, 2-amino-1′-[4-[(2-amino-4-fluoro-3-pyridyl)methyl-methyl-amino]-6-[[(2R,8S)-2-fluoro-1,2,3,5,6,7-hexahydropyrrolizin-8-yl]methoxy]-1,3,5-triazin-2-yl]spiro[6H-thieno[2,3-c]thiophene-4,3′-azetidine]-3-carbonitrile] | 10 to 100 | 10 to 100 | 100 to 1000 | < 10 | – | – |
| C[C@@]1(O)CCCN(c2nc(OCC3(CN4CCOCC4)CC3)nc(N3CC4(C3)c3c(sc(N)c3C#N)CC4(F)F)n2)C1 [Compound 98, 2-amino-5,5-difluoro-1′-[4-[(3R)-3-hydroxy-3-methyl-1-piperidyl]-6-[[1-(morpholinomethyl)cyclopropyl]methoxy]-1,3,5-triazin-2-yl]spiro[6H-cyclopenta[b]thiophene-4,3′-azetidine]-3-carbonitrile] | < 10 | 100 to 1000 | 10 to 100 | < 10 | – | – |
| N#Cc1c(N)sc2c1C1(CC2)CN(c2nc(OC[C@@]34CCCN3C[C@H](F)C4)nc(N3CCOCC(C#N)C3)n2)C1 (single isomer, unassigned) [Compound 91B, (6*)-4-[4-(2-amino-3-cyano-spiro[5,6-dihydrocyclopenta[b]thiophene-4,3′-azetidine]-1′-yl)-6-[[(2R,8S)-2-fluoro-1,2,3,5,6,7-hexahydropyrrolizin-8-yl]methoxy]-1,3,5-triazin-2-yl]-1,4-oxazepane-6-carbonitrile] | < 10 | – | – | < 10 | 10 to 100 | 100 to 1000 |
| CCN(c1nc(OCC2(COC)CCCN2)nc(N2CC3(C2)SCc2sc(N)c(C#N)c23)n1)[C@H](C)c1cccnc1N (stereo partly drawn) [Compound 202, 2-amino-1′-[4-[[(1R)-1-(2-amino-3-pyridyl)ethyl]-ethyl-amino]-6-[[2-(methoxymethyl)pyrrolidin-2-yl]methoxy]-1,3,5-triazin-2-yl]spiro[6H-thieno[3,4-b]thiophene-4,3′-azetidine]-3-carbonitrile] | < 10 | 10 to 100 | 10 to 100 | < 10 | – | – |
| C[C@@]1(O)CCCN(c2nc(OC[C@@]34CCCN3C[C@H](F)C4)nc(N3CC4(C3)c3c(sc(N)c3C#N)CC4(F)F)n2)C1 [Compound 114, 2-amino-5,5-difluoro-1′-[4-[[(2R,8S)-2-fluoro-1,2,3,5,6,7-hexahydropyrrolizin-8-yl]methoxy]-6-[(3R)-3-hydroxy-3-methyl-1-piperidyl]-1,3,5-triazin-2-yl]spiro[6H-cyclopenta[b]thiophene-4,3′-azetidine]-3-carbonitrile] | < 10 | 100 to 1000 | 10 to 100 | < 10 | – | – |
| N#Cc1c(N)sc2c1C1(CC2)CN(c2nc(OC[C@@]34CCCN3C[C@H](F)C4)nc(N3CCCOCC3)n2)C1 [Compound 89, 2-amino-1′-[4-[[(2R,8S)-2-fluoro-1,2,3,5,6,7-hexahydropyrrolizin-8-yl]methoxy]-6-(1,4-oxazepan-4-yl)-1,3,5-triazin-2-yl]spiro[5,6-dihydrocyclopenta[b]thiophene-4,3′-azetidine]-3-carbonitrile] | 10 to 100 | 100 to 1000 | 100 to 1000 | < 10 | – | – |
| N#Cc1c(N)sc2c1C1(CC2)CN(c2nc(OC[C@@]34CCCN3C[C@H](F)C4)nc(N(CCO)Cc3cccnc3N)n2)C1 [Compound 107, 2-amino-1′-[4-[(2-amino-3-pyridyl)methyl-(2-hydroxyethyl)amino]-6-[[(2R,8S)-2-fluoro-1,2,3,5,6,7-hexahydropyrrolizin-8-yl]methoxy]-1,3,5-triazin-2-yl]spiro[5,6-dihydrocyclopenta[b]thiophene-4,3′-azetidine]-3-carbonitrile] | < 10 | 10 to 100 | 10 to 100 | < 10 | – | – |
| CC1(C#N)CCCCN(c2nc(OC[C@@]34CCCN3C[C@H](F)C4)nc(N3CC4(CCc5sc(N)c(C#N)c54)C3)n2)C1 (stereo partly drawn) [Compound 111, 2-amino-1′-[4-(3-cyano-3-methyl-azepan-1-yl)-6-[[(2R,8S)-2-fluoro-1,2,3,5,6,7-hexahydropyrrolizin-8-yl]methoxy]-1,3,5-triazin-2-yl]spiro[5,6-dihydrocyclopenta[b]thiophene-4,3′-azetidine]-3-carbonitrile] | < 10 | 100 to 1000 | 100 to 1000 | < 10 | – | – |
| CCN(c1nc(OC[C@@H]2CC[C@H]3CN(C)CCN23)nc(N2CC3(C2)SCc2sc(N)c(C#N)c23)n1)[C@H](C)c1cccnc1N (mixture of isomers) [Compound 219, 1′-[4-[[(6SR,8aSR)-2-methyl-3,4,6,7,8,8a-hexahydro-1H-pyrrolo[1,2-a]pyrazin-6-yl]methoxy]-6-[[(1R)-1-(2-amino-3-pyridyl)ethyl]-ethyl-amino]-1,3,5-triazin-2-yl]-2-amino-spiro[6H-thieno[3,4-b]thiophene-4,3′-azetidine]-3-carbonitrile] | < 10 | 10 to 100 | 100 to 1000 | < 10 | – | – |
| CCN(c1nc(OC[C@@H]2C[C@@H](F)CN2)nc(N2CC3(C2)SCc2sc(N)c(C#N)c23)n1)[C@H](C)c1cccnc1N [Compound 209, 2-amino-1′-[4-[[(1R)-1-(2-amino-3-pyridyl)ethyl]-ethyl-amino]-6-[[(2S,4R)-4-fluoropyrrolidin-2-yl]methoxy]-1,3,5-triazin-2-yl]spiro[6H-thieno[3,4-b]thiophene-4,3′-azetidine]-3-carbonitrile] | < 10 | 10 to 100 | < 10 | < 10 | – | – |
| CN(Cc1cncs1)c1nc(OC[C@@]23CCCN2C[C@H](F)C3)nc(N2CC3(CCc4sc(N)c(C#N)c43)C2)n1 [Compound 152, 2-amino-1′-[4-[[(2R,8S)-2-fluoro-1,2,3,5,6,7-hexahydropyrrolizin-8-yl]methoxy]-6-[methyl(thiazol-5-ylmethyl)amino]-1,3,5-triazin-2-yl]spiro[5,6-dihydrocyclopenta[b]thiophene-4,3′-azetidine]-3-carbonitrile] | 1000 to 20000 | 1000 to 20000 | 1000 to 20000 | 100 to 1000 | – | – |
| CC(CO)N(Cc1cccnc1N)c1nc(OC[C@@]23CCCN2C[C@H](F)C3)nc(N2CC3(CCc4sc(N)c(C#N)c43)C2)n1 (stereo partly drawn) [Compound 149, 2-amino-1′-[4-[(2-amino-3-pyridyl)methyl-(2-hydroxy-1-methyl-ethyl)amino]-6-[[(2R,8S)-2-fluoro-1,2,3,5,6,7-hexahydropyrrolizin-8-yl]methoxy]-1,3,5-triazin-2-yl]spiro[5,6-dihydrocyclopenta[b]thiophene-4,3′-azetidine]-3-carbonitrile] | < 10 | 100 to 1000 | 1000 to 20000 | < 10 | – | – |
| C[C@]1(O)CN(c2nc(OC[C@@]34CCCN3C[C@H](F)C4)nc(N3CC4(CCc5sc(N)c(C#N)c54)C3)n2)CC[C@@H]1O (racemic) [Compound 62, 2-amino-1′-[4-[rac-(3S,4S)-3,4-dihydroxy-3-methyl-1-piperidyl]-6-[[(2R,8S)-2-fluoro-1,2,3,5,6,7-hexahydropyrrolizin-8-yl]methoxy]-1,3,5-triazin-2-yl]spiro[5,6-dihydrocyclopenta[b]thiophene-4,3′-azetidine]-3-carbonitrile] | 100 to 1000 | ≥ 20000 | ≥ 20000 | 100 to 1000 | – | – |
| CC(c1cccnc1N)N(C)c1nc(OCC2(CN3CCOCC3)CC2)nc(N2CC3(CCc4sc(N)c(C#N)c43)C2)n1 (stereo not shown) [Compound 97, 2-amino-1′-[4-[1-(2-amino-3-pyridyl)ethyl-methyl-amino]-6-[[1-(morpholinomethyl)cyclopropyl]methoxy]-1,3,5-triazin-2-yl]spiro[5,6-dihydrocyclopenta[b]thiophene-4,3′-azetidine]-3-carbonitrile] | 10 to 100 | 100 to 1000 | 1000 to 20000 | < 10 | – | – |
